According to patent US10370333B2 (Sanford Burnham Prebys Medical Discovery Institute, priority 2012, dated 2019):
pIC50: −log10 of the molar value.

Biological target: TNAP (Homo sapiens (Human), UniProt P05186)
Test: TNAP (PPi) inhibition assay, pyrophosphate as substrate
Format: biochemical
Outline: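 Enzyme source was conditioned serum-free medium from COS-1 cells transiently expressing tagged human TNAP, dialyzed against TBS with MgCl2/ZnCl2. Activity on natural substrate PPi at pH 7.4 read as liberated phosphate (Biomol Green).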

SMILES	pIC50
COc1ccc(Br)cc1S(=O)(=O)Nc1cncc(C(=O)OC2CCCCC2)c1 [Example IV-4, Cyclohexyl 5-(5-bromo-2-methoxyphenylsulfonamido)nicotinate]	> 7.00
COc1ccc(Br)cc1S(=O)(=O)Nc1cncc(C(=O)Oc2ccccc2)c1 [Example IV-5, Phenyl 5-(5-bromo-2-methoxyphenylsulfonamido)nicotinate]	> 7.00
CCOC(=O)c1cncc(NS(=O)(=O)c2cc(Cl)ccc2OC)c1 [Example IV-7, Ethyl 5-(5-chloro-2-methoxyphenylsulfonamido)nicotinate]	> 7.00
CCCOC(=O)c1cncc(NS(=O)(=O)c2cc(Cl)ccc2OC)c1 [Example IV-8, Propyl 5-(5-chloro-2-methoxyphenylsulfonamido)nicotinate]	> 7.00
COc1ccc(Cl)cc1S(=O)(=O)Nc1cncc(C(=O)OC2CCCCC2)c1 [Example IV-9, Cyclohexyl 5-(5-chloro-2-methoxyphenylsulfonamido)nicotinate]	> 7.00
COc1ccc(Cl)cc1S(=O)(=O)Nc1cncc(C(=O)Oc2ccccc2)c1 [Example IV-10, Phenyl 5-(5-chloro-2-methoxyphenylsulfonamido)nicotinate]	> 7.00
COC(=O)c1cncc(NS(=O)(=O)c2cc(OC)ccc2OC)c1 [Example IV-11, Methyl 5-(2,5-dimethoxyphenylsulfonamido)nicotinate]	> 7.00
CCNC(=O)c1cncc(NS(=O)(=O)c2cc(Br)ccc2OC)c1 [Example IV-18, 5-(5-Bromo-2-methoxyphenylsulfonamido)-N-ethylnicotinamide]	6.00 to 7.00
CCCNC(=O)c1cncc(NS(=O)(=O)c2cc(Br)ccc2OC)c1 [Example IV-19, 5-(5-Bromo-2-methoxyphenylsulfonamido)-N-propylnicotinamide]	6.00 to 7.00
COCCNC(=O)c1cncc(NS(=O)(=O)c2cc(Br)ccc2OC)c1 [Example IV-21, 5-(5-Bromo-2-methoxyphenylsulfonamido)-N-(2-methoxyethyl)nicotinamide]	6.00 to 7.00
COc1ccc(Br)cc1S(=O)(=O)Nc1cncc(C(=O)Nc2ccccc2)c1 [Example IV-23, 5-(5-Bromo-2-methoxyphenylsulfonamido)-N-phenylnicotinamide]	6.00 to 7.00
COc1ccc(Br)cc1S(=O)(=O)Nc1cncc(C(=O)N2CCN(C)CC2)c1 [Example IV-25, 5-Bromo-2-methoxy-N-(5-(4-methylpiperazine-1-carbonyl)pyridin-3-yl)benzenesulfonamide]	6.00 to 7.00
COc1ccc(Cl)cc1S(=O)(=O)Nc1cncc(C(N)=O)c1 [Example IV-26, 5-(5-Chloro-2-methoxyphenylsulfonamido)nicotinamide]	> 7.00
COc1ccc(OC)c(S(=O)(=O)Nc2cncc(C(=O)N3CCOCC3)c2)c1 [Example IV-43, 2,5-Dimethoxy-N-(5-(morpholine-4-carbonyl)pyridin-3-yl)benzenesulfonamide]	6.00 to 7.00

Further lines, results first:

pIC50	SMILES
> 7.00	CCOC(=O)c1cncc(NS(=O)(=O)c2cc(OC)ccc2OC)c1 [Example IV-12, Ethyl 5-(2,5-dimethoxyphenylsulfonamido)nicotinate]
> 7.00	CCCOC(=O)c1cncc(NS(=O)(=O)c2cc(OC)ccc2OC)c1 [Example IV-13, Propyl 5-(2,5-dimethoxyphenylsulfonamido)nicotinate]
> 7.00	COc1ccc(OC)c(S(=O)(=O)Nc2cncc(C(=O)OC3CCCCC3)c2)c1 [Example IV-14, Cyclohexyl 5-(2,5-dimethoxyphenylsulfonamido)nicotinate]
> 7.00	COc1ccc(OC)c(S(=O)(=O)Nc2cncc(C(=O)Oc3ccccc3)c2)c1 [Example IV-15, Phenyl 5-(2,5-dimethoxyphenylsulfonamido)nicotinate]
6.00 to 7.00	CNC(=O)c1cncc(NS(=O)(=O)c2cc(Br)ccc2OC)c1 [Example IV-16, 5-(5-Bromo-2-methoxyphenylsulfonamido)-N-methylnicotinamide]
> 7.00	COc1ccc(Br)cc1S(=O)(=O)Nc1cncc(C(=O)NC2CCCCC2)c1 [Example IV-20, 5-(5-Bromo-2-methoxyphenylsulfonamido)-N-cyclohexylnicotinamide]
6.00 to 7.00	COc1ccc(Br)cc1S(=O)(=O)Nc1cncc(C(=O)NCCN(C)C)c1 [Example IV-22, 5-(5-Bromo-2-methoxyphenylsulfonamido)-N-(2-(dimethylamino)ethyl)nicotinamide]
< 6.00	COc1ccc(Br)cc1S(=O)(=O)Nc1cncc(C(=O)N2CCOCC2)c1 [Example IV-24, 5-Bromo-2-methoxy-N-(5-(morpholine-4-carbonyl)pyridin-3-yl)benzenesulfonamide]
> 7.00	CCCNC(=O)c1cncc(NS(=O)(=O)c2cc(Cl)ccc2OC)c1 [Example IV-29, 5-(5-Chloro-2-methoxyphenylsulfonamido)-N-propylnicotinamide]
> 7.00	COc1ccc(Cl)cc1S(=O)(=O)Nc1cncc(C(=O)NC2CCCCC2)c1 [Example IV-30, 5-(5-Chloro-2-methoxyphenylsulfonamido)-N-cyclohexylnicotinamide]
6.00 to 7.00	COCCNC(=O)c1cncc(NS(=O)(=O)c2cc(Cl)ccc2OC)c1 [Example IV-32, 5-(5-Chloro-2-methyoxyphenylsulfonamido)-N-(2-methoxyethyl)nicotinamide]
6.00 to 7.00	COc1ccc(Cl)cc1S(=O)(=O)Nc1cncc(C(=O)NCCN(C)C)c1 [Example IV-33, 5-(5-Chloro-2-methoxyphenylsulfonamido)-N-(2-(dimethylamino)ethyl)nicotinamide]
6.00 to 7.00	COc1ccc(Cl)cc1S(=O)(=O)Nc1cncc(C(=O)N2CCOCC2)c1 [Example IV-34, 5-Chloro-2-methoxy-N-(5-(morpholine-4-carbonyl)pyridin-3-yl)benzenesulfonamide]
6.00 to 7.00	COc1ccc(OC)c(S(=O)(=O)Nc2cncc(C(N)=O)c2)c1 [Example IV-36, 5-(2,5-Dimethoxyphenylsulfonamido)nicotinamide]
6.00 to 7.00	CNC(=O)c1cncc(NS(=O)(=O)c2cc(OC)ccc2OC)c1 [Example IV-37, 5-(2,5-Dimethoxyphenylsulfonamido)-N-methylnicotinamide]
6.00 to 7.00	CCCNC(=O)c1cncc(NS(=O)(=O)c2cc(OC)ccc2OC)c1 [Example IV-38, 5-(2,5-Dimethoxyphenylsulfonamido)-N-propylnicotinamide]
> 7.00	COc1ccc(OC)c(S(=O)(=O)Nc2cncc(C(=O)NC3CCCCC3)c2)c1 [Example IV-39, 5-(2,5-Dimethoxyphenylsulfonamido)-N-cyclohexylnicotinamide]
6.00 to 7.00	COc1ccc(OC)c(S(=O)(=O)Nc2cncc(C(=O)Nc3ccccc3)c2)c1 [Example IV-40, 5-(2,5-Dimethoxyphenylsulfonamido)-N-phenylnicotinamide]
6.00 to 7.00	COCCNC(=O)c1cncc(NS(=O)(=O)c2cc(OC)ccc2OC)c1 [Example IV-41, 5-(2,5-Dimethoxyphenylsulfonamido)-N-(2-methoxyethyl)nicotinamide]
6.00 to 7.00	COc1ccc(OC)c(S(=O)(=O)Nc2cncc(C(=O)NCCN(C)C)c2)c1 [Example IV-42, 5-(2,5-Dimethoxyphenylsulfonamido)-N-(2-(dimethylamino)ethyl)nicotinamide]
